Experimental findings from patent US20200268786A1, “RNA CONTAINING COMPOSITIONS AND METHODS OF THEIR USE” (Icahn School of Medicine at Mount Sinai, priority 2015, published 2020) are described below.

In this assay the test system is human monocyte derived DCs (moDCs). Nature of the assay: cytokine production of human moDCs stimulated with ncRNA (DOTAP liposomal transfection or none). Type of assay: cell-based. The note with it: DOTAP liposomal transfection, 2 ug/ml ncRNA. On the procedure:
PCR products were purified by PCR-Cleanup (Qiagen) and controlled by electrophoresis (0.8% Agarose gel). RNAs were generated by in vitro transcription using the mMESSAGE mMACHINE T7 ultra kit (Ambion) followed by a capping and short polyA reaction. RNAs were then purified using RNA-cleanup (Qiagen), quantified using a nanodrop, and checked by electrophoresis after denaturation at 65° C. for 10 minutes (1 5% Agarose gel).
MoDCs and imBM were both stimulated by i-ncRNA in the same way. The culturing of these cells is described below. Briefly, cells were plated in 96 flat well plates at 200,000 cells per well for primary cells (MoDCs) and 100,000 cells per well for lines (IMBM). i-ncRNA were transfected via liposomes formed using DOTAP (Roche Life Science) at a ratio of 1 μg DNA per 6 μl DOTAP diluted in HBS following the user-guide recommendations. The cells were stimulated using 2 μg/ml of purified i-ncRNA versus 10 μg/ml total RNA. To stimulate the TLR4 pathway, 100 ng/ml Ultrapure LPS (Invivogen) was used for TLR2: 500 ng/ml Pam2CSK4 (Invivogen) for TLR3: 2 μg/ml HMW PolyIC (Invivogen) TLR7/8: 1 μg/ml CLO97 (Invivogen) and 100 ng/ml R848 (Invivogen) TLR9: CpG B-ODN 1826 3 μM or STING CDN 5 μg/ml (Aduro).
Human moDCs: Human monocyte derived DCs were differentiated as previously described (Frleta et al., “HIV-1 Infection-Induced Apoptotic Microparticles Inhibit Human DCs via CD44,” J. Clinical Invest. 122:4685 (2012), which is hereby incorporated by reference in its entirety). Briefly, PBMCs were prepared by centrifugation over Ficoll-Hypaque gradients (BioWhittaker) from healthy donor buffy coats (New York Blood Center). Monocytes were isolated from PBMCs by adherence and then treated with 100 U/ml GM-CSF (Leukine Sanofi Oncology) and 300 U/ml IL-4 (RandD) in RPMI plus 5% human AB serum (Gemini Bio Products). Differentiation media was renewed on day 2 and day 4 of culture. Mature moDCs were harvested for use on days 5 to 7. For all experiments, harvested DCs were washed and equilibrated in serum-free X-Vivo 15 media (Lonza).

With `CCOCc1nc2c(N)nc3ccccc3c2n1CC(C)(C)O` [R848], the IL-6 production result was “induced a cellular inflammatory response”, the IL-12 production result is “induced a cellular inflammatory response” and the TNFalpha production entry is reported as “induced a cellular inflammatory response”.

As to Poly-IC, the IL-6 production result is “induced a cellular inflammatory response”, the IL-12 production result is recorded as “induced a cellular inflammatory response” and the TNFalpha production result was “induced a cellular inflammatory response”.
